Assay results taken from a melting point compilation (Tetko et al.; mined from patent text by program, amines drawn as free bases though some values may be those of a salt).

melting point [°C] | SMILES
109 to 110 | CCOC(=O)C(=CNc1ccc(F)c(F)c1OCC1CN(Cc2ccccc2)CCN1Cc1ccccc1)C(=O)OCC (stereo not drawn)
105 to 110 | CCCC(=O)n1ccc(-c2ccc(C(=O)N3Cc4cccn4Cc4ccccc43)cc2)n1
196 to 198 | Nc1[nH]c(=S)nc2nc[nH]c12
162 to 163 | COc1c(NC(=O)c2ccc(Br)cc2)cccc1[N+](=O)[O-]
107 to 111 | CCOC(=O)[C@H](CCc1ccccc1)NC(=O)C1(NC(=O)[C@@H](SC(C)=O)C2CCOCC2)CCCC1
185 to 186 | CC1=CC(O)C(OC(=O)c2ccc(N)cc2N)C(C)(C)CC1=O (stereo not drawn)
92 to 94 | OCCCCCCOc1ccc(-c2ccccc2)cc1
130 to 134 | Cc1ccc(CNc2nc(Nc3cccc(N4CCOCC4)c3)nc(OCC(F)(F)F)n2)o1
69 to 71 | CCOc1ccc(C)c(NCc2ccccc2)c1
171 | FC(F)(F)c1cccc(-c2cc(C(F)(F)F)n3ncc(-c4cccnc4)c3n2)c1
180 | CC(C)(c1ccc(Oc2ccc(N)cc2)cc1)c1cccc(C(C)(C)c2ccc(Oc3ccc(N)cc3)cc2)c1
124 | CC(C)(C)c1cc(SCCc2n[nH]c(=S)o2)cc(C(C)(C)C)c1O
157 to 158 | CC(=NO)c1ccc(Cl)c(S(N)(=O)=O)c1
102 to 104 | N#CN=C(Nc1cccnc1)NC1(c2cccc(Cl)c2)CCC1
205 to 206 | CC(C)n1nc(-c2sc(NC(=O)c3ccc(Cl)cc3)nc2-c2ccccc2)ccc1=O
94 | O=C(Cl)Oc1cccc(NC(=O)C2CC2)c1
190 to 191 | Cc1ccc(-c2c(NS(=O)(=O)c3ccc(C(C)(C)C)cc3)ncnc2OCCOc2ccc(N)cc2)cc1
108 to 112 | OC(COc1ccc(Cl)cc1)(Cn1cncn1)c1ccc(Br)s1 (stereo not drawn)
220 to 222 | COc1cccc2c(=O)n(S(=O)(=O)c3ccc(Cl)cc3)c(=O)[nH]c12
102 to 108 | Cc1cccc(CCOc2nc(N)c3ncn(C4OC(CO)C(O)C4O)c3n2)c1 (stereo not drawn)
252 to 253 | CCOC(=O)c1cn(-c2ccc(F)cc2)c2cc(-c3ccncc3)ccc2c1=O
120 | CS(=O)(=O)c1cc(OCC(O)CNC2CCC(c3ccc(C(=O)N4CCC(C(O)c5ccccc5)CC4)cc3)CC2)ccc1O (stereo not drawn)
234 to 235 | CNC(=S)NS(=O)(=O)c1cc2c(cc1OC)OC(C)(C)C(NC(=O)c1cc(Cl)ccc1OC)C2 (stereo not drawn)
240 to 241 | CC(C)(F)Cn1c(CO)nc2c(N)nc3cccnc3c21

melting point [°C] | SMILES
108 to 109 | Clc1ccc(-c2nc(-c3ccccc3)sc2CBr)cc1
88 to 89 | CCCCCCCC(=O)c1ccc(CCC(C)(COC(C)=O)NC(C)=O)cc1 (stereo not drawn)
63 to 65 | CCCCCCCCCCCCCCCCCCOc1cc(N)cc(OCCCP(=O)(OCC)OCC)c1
85 | COc1ccc(OC)c(NC(=O)Cc2ccccc2)c1
140 to 141 | CN(C)Cc1cccc(OCCCNc2nc(Cc3ccccc3)n[nH]2)c1
204 to 206 | CCn1c(=O)c2c(nc(/C=C/c3ccc(OC)c(O)c3)n2C)n(CC)c1=O
159 to 160 | CCN(CC)CCn1c(=O)c2cc(OC)c(OC)cc2c2cnc3cc4c(cc3c21)OCO4
134 to 137 | COCCOc1cc2ncnc(NC3=CC(=O)C(Oc4ccccc4C)=CC3=O)c2cc1OC
132 to 134 | C/C(NC1CCCCCC1)=C(\C#N)C(N)=S
99 to 100 | CCOc1ccc(S(=O)(=O)Cl)cc1C(=O)OC
> 230 | NS(=O)(=O)c1ccc(NN=C2C(=O)Nc3ccc(C(=O)NCCCO)cc32)cc1
159 to 161 | Cc1noc(C)c1-c1cn(Cc2ccccc2)c(=O)c2ccncc12
161 to 163 | O=C(NCc1ccc(/C=C/C(c2cc(Cl)c(Cl)c(Cl)c2)C(F)(F)F)cc1Cl)C(=O)NCC(F)(F)F (stereo not drawn)
81 to 84 | COc1ccc(-c2cc(C)c(N)c(C=O)c2)cn1
132 to 133 | COc1ccc(-c2nc(C)cc(OCCN3CCN(C(c4ccccc4)c4ccccc4)CC3)n2)cc1
110 to 113 | COc1ccc(C)cc1NC(=O)Nc1ccc2c(c1)CCN(C(=O)Nc1ccc(OCCO)cc1Cl)C2
247 to 249 | CC(=O)NCC1CN(c2ccc(N3CCN(c4nnc(C)s4)CC3)c(F)c2)C(=O)O1 (stereo not drawn)
94 to 96 | CCOc1ccc(C(=O)c2ccc(OC)c(Cl)c2Cl)c(F)c1
155 to 156 | Oc1ccc(N2CCN(Cc3nc4ccccc4o3)CC2)cc1
132 | CCCCOc1ccc(-n2cc(C(=O)OCC)cn2)cc1C#N
85 to 86 | N#Cc1cc(I)ccc1N
252 to 254 | COc1ccc(OC)c(Cc2cnc3nc(N)nc(N)c3c2C)c1
52 | Fc1ccc(-c2nccc(Oc3cccc(C(F)(F)F)c3)n2)cc1
195 to 197 | CN1C(=O)C(c2cccc(-c3cccnc3F)c2)(c2cnn(CCF)c2)N=C1N (stereo not drawn)

melting point [°C] | SMILES
> 250 | CCCOc1cc2c(=O)cc(C(=O)O)[nH]c2ccc1=O
132 to 136 | O=C(/C=C/c1ccc(O)cc1Cl)CC(=O)/C=C/c1cc(O)ccc1[N+](=O)[O-]
> 300 | Oc1ccc(O)c2[nH]c(-c3ccc(Cl)cc3)nc12
61.5 to 63 | CNc1cc(F)ccc1C(=O)CSC
158 to 159 | CC(C)C1(Cl)Cc2cc(OCC(=O)O)c(Cl)c(Cl)c2C1=O (stereo not drawn)
162 to 164 | CC1NC2(c3ccccc3)c3ccccc3C(=O)N2C1C (stereo not drawn)
216 to 217 | CC(=O)N1[C@@H](C(=O)O)C(C)(C)S[C@H]1c1ccccc1
138 to 140 | FC(F)(F)c1cccc(-c2ccnc3c(Br)cnn23)c1
192 to 194 | CC(=O)OCc1nc2sc(S(N)(=O)=O)cc2c(=O)n1-c1ccccc1Cl
166 to 168 | CC(=O)N1CCN(c2cc3nc(C(C)(C)C)sc3cc2[N+](=O)[O-])CC1
105 to 107 | CCOc1nc(NCc2ccco2)nc(Nc2ccc3c(c2)ncn3C)n1
70 to 71 | CCOC(=O)C1COc2cc(C)c(C)cc2O1 (stereo not drawn)
216 to 217 | CC1(C)OC(=O)Nc2c(Br)cc(-c3cc(F)cc(C#N)c3)cc21
276 to 278 | O=C(O)c1cn2c(n1)COc1ccc(Cl)cc1-2
131 to 133 | COCOc1cc(OC)c(OC)cc1-c1c(C(=O)OC)nnc(C(=O)OC)c1-c1ccc(OC)c(OC)c1
118 to 119 | CC(C)C(C)(C(N)=O)N1C(=O)c2ccccc2C1=O (stereo not drawn)
102 | NCCn1c(NC2CCN(Cc3ccccc3)CC2)nc2cccnc21
183 to 185 | COC(c1ccccc1)n1cnc2c(-c3cccs3)nc(Cl)nc21 (stereo not drawn)
93 | COC(=O)C(O)C(NC(=O)OC(C)(C)C)C1CC1 (stereo not drawn)
90 to 96 | CC(C)C[C@H](NC(=O)OC(C)(C)C)C(=O)N[C@@H](C(C)C)[C@@H](O)c1c(-c2ccc(F)cc2)c1=O
179 to 182 | CS(=O)(=O)c1ccc(-c2cnn(Cc3ccc(F)cc3F)c(=O)c2-c2ccc(F)cc2)cc1
133 to 135 | COc1cc(C=Nc2cc(Cl)c(N=CN(C)C)c(Cl)c2)cc(OC)c1
195 | CCOC(=O)C1=C(c2ccccc2)Nc2n[nH]cc2C1c1ccccc1OC (stereo not drawn)
110 to 113 | COc1cc(-c2ncsc2-c2ccc(C(F)(F)F)cc2)cc(OC)c1OC

melting point [°C] | SMILES
233 to 235 | CCOC(=O)C1=C(O)CCn2c1nc1ccccc12
85 to 87 | Cc1c(C)c2c(c(C)c1O)CCC(C)(CCOC(=O)C(C)c1ccc(-c3ccccc3)c(F)c1)O2 (stereo not drawn)
178 to 181 | CN(C)CCCNc1ccnc2cc3c(cc12)OCO3
95 to 98 | N#CCOC(=O)c1ccc(C(c2ccccc2)c2ccccc2)cn1
219 | Nc1cc(C(=O)NC2CC2)n(-c2nc(Cl)nc3ccoc23)n1
189 to 190 | CCOC(=O)C(=O)Nc1cc(C#N)cc(NC(=O)C(=O)OCC)c1
102 to 104 | CCCCCCCCCCCCCCCCCCOc1ccc(C(=O)O)c(OCCCOc2ccc(OCc3ccccc3)cc2)c1
144 to 145 | Cc1ncc(C(=S)Nc2c(Cl)cncc2Cl)cc1OC1CCCC1
90.4 | COc1cccc(OCc2ccc(C(=O)N(C)C3CCCCC3)cc2)c1
147 to 148 | COC(=O)c1ccc(C)c(-n2c(C)cc(OCc3ccccc3CNC(=O)Nc3cc(C(C)(C)C)nn3-c3cccc(OCCO)c3)c(Cl)c2=O)c1
94 to 95 | COC(=O)c1ccc(CN2C(=O)C(CCO)Oc3ccccc32)cc1 (stereo not drawn)
145 to 148 | CCCCCC(O)/C=C/n1ccnc1 (stereo not drawn)
184 to 186 | CCCC(=O)c1cc(C(=O)O)c(N)cc1C
167 to 170 | COc1ccc(NC(=O)c2ccc(-c3ccc(C(=O)N4CCC4)cc3C)cc2)cc1N1CCN(C)CC1
234 to 235 | COc1cc(C(=O)Nc2ccc3c(c2)CCN(C)C3)cc(OC)c1OC
213 to 214 | COC(=O)c1cn2c(n1)COc1ccc(N)cc1-2
128 to 130 | Cc1cccc(-n2nc(C)cc2-c2ccnc(C#N)c2)c1
77.3 to 77.8 | COC(=O)/C(O)=C1\CCc2cc(OC)ccc2C1=O
97 to 99 | CC(C)(C)OC(=O)N1C[C@H](C#N)C[C@H]1C(=O)OCc1ccccc1
177 to 178 | COc1cc2c(Nc3cccc(Cl)c3F)ncnc2cc1OC1CCN(C(=O)C2(O)CC2)CC1
284 | Cn1c(=O)c(-c2ccc(Cl)cc2Cl)cc2c3cc(C=O)ccc3n(C)c21
74.5 to 76 | CC1(c2ccccc2)OC(C=Cc2ccccn2)=CC1=O (stereo not drawn)
95 to 96 | OC(CNCCN(c1ccccc1)c1ccccc1)COc1ccccc1 (stereo not drawn)

SMILES | melting point [°C]
CCC1=NC(=NOC(=O)NC)SC1(C)CC (stereo not drawn) | 88 to 90
CN(C)C(=NS(=O)(=O)c1ccc(Cl)cc1)N1CC(c2ccccc2)C(c2ccc(Cl)cc2)=N1 (stereo not drawn) | 182
CC(=O)NC(=S)NCC1CC2c3cccc4c3c(cn4C)CC2N(C)C1 (stereo not drawn) | 195 to 197
